{"source": "paper PMC4728427", "about": "“Mechanism of allosteric activation of TMEM16A/ANO1 channels by a commonly used chloride channel blocker” (British Journal of Pharmacology, 2016)", "molecular_target": "T1, Mouse TMEM16A (Mus musculus, UniProt Q8BHY3)", "T1 construct": "expressed in transfected cells; host or cells: HEK-293T", "T1 sequence (Q8BHY3 1-960)": "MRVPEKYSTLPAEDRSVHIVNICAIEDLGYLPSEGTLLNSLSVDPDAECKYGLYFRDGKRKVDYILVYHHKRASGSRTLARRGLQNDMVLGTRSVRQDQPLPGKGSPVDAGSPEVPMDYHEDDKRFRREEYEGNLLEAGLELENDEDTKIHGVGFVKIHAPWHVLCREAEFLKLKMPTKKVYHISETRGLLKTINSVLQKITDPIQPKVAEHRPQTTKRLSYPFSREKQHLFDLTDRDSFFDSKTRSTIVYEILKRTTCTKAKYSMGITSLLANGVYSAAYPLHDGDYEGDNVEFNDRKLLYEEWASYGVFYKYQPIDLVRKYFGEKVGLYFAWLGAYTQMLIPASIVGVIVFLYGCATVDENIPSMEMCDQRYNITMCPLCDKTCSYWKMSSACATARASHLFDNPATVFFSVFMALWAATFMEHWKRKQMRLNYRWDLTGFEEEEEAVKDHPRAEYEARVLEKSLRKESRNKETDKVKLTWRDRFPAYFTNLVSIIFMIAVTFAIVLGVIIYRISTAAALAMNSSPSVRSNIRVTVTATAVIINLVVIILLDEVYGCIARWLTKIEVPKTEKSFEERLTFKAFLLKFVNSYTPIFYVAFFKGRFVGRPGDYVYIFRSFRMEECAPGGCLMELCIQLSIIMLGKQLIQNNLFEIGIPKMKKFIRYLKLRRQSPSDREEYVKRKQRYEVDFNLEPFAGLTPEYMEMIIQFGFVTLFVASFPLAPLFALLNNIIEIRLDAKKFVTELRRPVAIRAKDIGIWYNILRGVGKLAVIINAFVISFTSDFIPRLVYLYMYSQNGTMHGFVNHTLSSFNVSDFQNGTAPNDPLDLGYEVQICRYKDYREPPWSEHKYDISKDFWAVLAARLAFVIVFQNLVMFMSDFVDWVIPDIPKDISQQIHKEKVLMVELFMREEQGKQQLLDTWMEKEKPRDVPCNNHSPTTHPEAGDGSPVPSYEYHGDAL", "experiment": "Whole-cell [A9C]ext-inhibition relationship (Hill and Woodhull fits), 12.5 μM [Ca2+]i", "assay_type": "cell-based", "protocol": "Mouse TMEM16A (GenBank NM_178642) subcloned into pcDNA3.1 vector was used in this study (Alexander et al., 2013). HEK‐293T cells were cultured as previously described (Smith et al., 2013) and transfected with 0.5–1 μg of TMEM16A and 0.1 μg of CD8 constructs using Fugene HD (Promega, Madison, WI, USA) according to the manufacturer's instructions. Cells were used ~12–36 h after transfection. Transfected cells were visualized using the anti‐CD8 antibody‐coated beads method (Jurman et al., 1994).\nThe intracellular solution contained (mM) 130 CsCl, 10 EGTA, 1 MgCl2, 10 HEPES and 8 CaCl2 to obtain ~300 nM of [Ca^2+]i; pH was adjusted to 7.3 with NaOH. The intracellular solutions containing ~600 nM, ~1000 nM and ~12.5 μM [Ca^2+]i were obtained by replacing EGTA with equimolar H‐EDTA and by adding 2.1, 3.1 and 7.8 mM CaCl2 respectively. The extracellular solution contained (mM) 150 NaCl, 1 CaCl2, 1 MgCl2, 10 glucose, 10 D‐mannitol and 10 HEPES; pH was adjusted to 7.4 with NaOH. […] A9C was dissolved in DMSO (stock concentration, 300 mM); thus, the final concentration of DMSO was ≤1%. Aliquots of the stock solution were kept at −20° and used within 5 days.\nThe relationship between [A9C] and TMEM16A current inhibition was obtained by measuring the currents at the end of 250 ms V m steps from +20 to +120 mV in 20 mV increments elicited every 2 s from a holding V m of −70 mV. TMEM16A currents measured in the presence of A9C (I b) were normalized to currents measured in the absence of A9C (I 0) and plotted against [A9C]. The concentration–response curves obtained were fit with the Hill equation of the form: (1) Ib/Io=1/1+A9C/Ki^γ,\nwhere K i is the apparent A9C dissociation constant from the inhibitory site and γ is the coefficient of cooperativity (Hill coefficient).\nThe relationships between the K i or K d and V m were fitted with the Woodhull equation (Woodhull, 1973): (3) Kx=Kx0exp−δxzFVm/RT.\nThe subscript ‘x’ stands for either ‘i’ or ‘d’. Thus, K i(0) or K d(0) are the apparent A9C dissociation constants from the inhibitory or activating site at 0 mV, z is the A9C electric valence (−1), δ i or δ d is the fraction of the V m sensed by A9C when bound to the inhibitory or activating site, F is Faraday's constant, R is the universal gas constant and T is the absolute temperature.\nTo investigate the precise mechanism by which extracellular A9C inhibits TMEM16A channels, macroscopic whole‐cell currents were recorded in the presence of 12.5 μM [Ca^2+]i and in response to 250 ms steps to various V m test pulse from a holding V m of −70 mV. The negative holding V m was used to prevent channel block before the test pulse was elicited. […] The time‐course of this decrease was described by a single‐exponential function characterized by a time constant τ B. The extent of the decrease in current was measured for various [A9C]ext and various V m test pulse and then plotted relative to the current measured in the absence of A9C (I 0) (Figure 3B). The γ values were close to 1 at each V m. In contrast, K i decreased as the V m was increased (Figure 3C). […] Thus, A9C appeared to block TMEM16A channels according to a Woodhull mechanism, consistent with a single A9C molecule blocking the channel pore.", "note": "Where two headings read alike, the source gives them in different places."}
{"smiles": "O=C(O)c1c2ccccc2cc2ccccc12", "note": "[A9C, Anthracene‐9‐carboxylic acid]", "values": [{"measurement": "Ki", "setting": "12.5 μM [Ca2+]i (rounded in Discussion), read-out: K i(0)", "result": "~300", "unit": "µM"}, {"measurement": "δ i (fraction of Vm sensed at inhibitory site, Woodhull fit)", "setting": "12.5 μM [Ca2+]i, extracellular A9C", "result": "0.62 ± 0.03"}, {"measurement": "Ki", "setting": "12.5 μM [Ca2+]i, extracellular A9C, read-out: K i(0) (apparent dissociation constant from inhibitory site at 0 mV)", "result": "322 ± 13", "unit": "µM"}, {"measurement": "Ki", "setting": "+80 mV, mouse TMEM16A (rounded in Discussion), read-out: K i", "result": "~50", "unit": "µM"}, {"measurement": "γ (slope factor, inhibition)", "setting": "V m 20, 12.5 μM [Ca2+]i", "result": "0.86 ± 0.14 (n = 8)"}, {"measurement": "Ki", "setting": "V m 20, 12.5 μM [Ca2+]i, [A9C]ext, unit inferred, read-out: K i (Hill fit of inhibition)", "result": "198 ± 47", "unit": "µM"}, {"measurement": "γ (slope factor, inhibition)", "setting": "V m 40, 12.5 μM [Ca2+]i", "result": "0.85 ± 0.15 (n = 8)"}, {"measurement": "Ki", "setting": "V m 40, 12.5 μM [Ca2+]i, [A9C]ext, unit inferred, read-out: K i (Hill fit of inhibition)", "result": "113 ± 26", "unit": "µM"}, {"measurement": "γ (slope factor, inhibition)", "setting": "V m 60, 12.5 μM [Ca2+]i", "result": "0.8 ± 0.2 (n = 8)"}, {"measurement": "Ki", "setting": "V m 60, 12.5 μM [Ca2+]i, [A9C]ext, unit inferred, read-out: K i (Hill fit of inhibition)", "result": "68 ± 20", "unit": "µM"}, {"measurement": "γ (slope factor, inhibition)", "setting": "V m 80, 12.5 μM [Ca2+]i", "result": "0.8 ± 0.17 (n = 8)"}, {"measurement": "Ki", "setting": "V m 80, 12.5 μM [Ca2+]i, [A9C]ext, unit inferred, read-out: K i (Hill fit of inhibition)", "result": "44 ± 10", "unit": "µM"}, {"measurement": "γ (slope factor, inhibition)", "setting": "V m 100, 12.5 μM [Ca2+]i", "result": "0.8 ± 0.23 (n = 8)"}, {"measurement": "Ki", "setting": "V m 100, 12.5 μM [Ca2+]i, [A9C]ext, unit inferred, read-out: K i (Hill fit of inhibition)", "result": "31 ± 12", "unit": "µM"}, {"measurement": "γ (slope factor, inhibition)", "setting": "V m 120, 12.5 μM [Ca2+]i", "result": "0.71 ± 0.16 (n = 8)"}, {"measurement": "Ki", "setting": "V m 120, 12.5 μM [Ca2+]i, [A9C]ext, unit inferred, read-out: K i (Hill fit of inhibition)", "result": "20 ± 8", "unit": "µM"}, {"measurement": "electric distance of inhibiting binding site (δ i)", "setting": "Woodhull analysis, rounded", "result": "~ 0.6"}, {"measurement": "penetration into the pore length (voltage field) to reach inhibitory site", "setting": "from δ i", "result": "approximately 60%"}, {"measurement": "γ from Hill fit of [A9C]ext-inhibition relationships", "setting": "rounded in Discussion", "result": "≈ 1"}]}
